Entries after “also recorded” stand apart in the source; their conditions may differ.
Experiments:
Arabidopsis thaliana [1] = assay: MOA1 biochemical (metabolite) profiling by LC-MS and GC-MS; settings: 20 minutes and 1 hour after spraying
[2] = test system: Arabidopsis thaliana plants; assay: SOA1 phenotypic analysis of herbicide-treated plants (MIC, Tmic, leaf traits, symptom class); format: in vivo; settings: for Characteristic symptoms of treated plants (in words): SOA1 phenotypic analysis; for leafCurling (Dev.) / leafTwisting (Dev.) / leafWidth (Dev.) / matureLeafAnthocyanins (Dev.) / matureLeafChlorosis (Dev.) / matureLeafNecrosis (Dev.) / newLeafAnthocyanins (Dev.) / newLeafChlorosis (Dev.) / newLeafNecrosis (Dev.) / pointedLeaves (Dev.): numeric value standardized to mock treated plants; for leafCurling (Dev.) / leafTwisting (Dev.) / leafWidth (Dev.) / matureLeafAnthocyanins (Dev.) / matureLeafChlorosis (Dev.) / matureLeafNecrosis (Dev.) / newLeafAnthocyanins (Dev.) / newLeafChlorosis (Dev.) / newLeafNecrosis (Dev.) / pointedLeaves (Dev.) / tMic (Dev.): SOA1; for tMic (Dev.): score for time to full range of symptoms at the MIC
Magnaporthe grisea = format: cell-based
Arabidopsis thaliana [3] = assay: MOA1 gene expression profiling (arrays of 22,000 Arabidopsis genes); settings: for No. of Lethal Genes Altered: altered genes identified as essential for plant growth in internal database; for Gene expression perturbation (in words): MOA1, one-hour time point
yeast cells = assay: AF1 combined gene expression and metabolite data mapped to KEGG reactions and pathways; set-up: species or system Saccharomyces cerevisiae
From the text: The pathway score indicates how meaningful the mapping is, or how likely it is to be correctly indicative of the pathway involved in the perturbation under examination. The method provides a pathway score based on perturbation levels of genes and/or compounds and the information content of each gene and/or compound in the pathway, i.e., a pathway score indicates the extent to which other pathways are mapped to a gene/compound. For example, imagine that two genes are perturbed in a particular experiment. One gene maps to only one pathway, giving a high degree of probability that the perturbed pathway is the one identified in the mapping. The second gene maps to three pathways. In the later example, there is only one-third the probability that the pathway identified in the mapping is the one perturbed. […] Degree of perturbation can be calculated, for example, based on a number of standard deviations from a norm, and included in an equation such as the one shown above, so that not only the number of pathways is taken into account, but also accounts for the amount of gene transcript, or compound present as compared to a control. […] KEGG links 676 compounds measured in AF1 to a total of 92 pathways. Of the 676 compounds under consideration, 77 were detected in the AF1 samples. […]

[4] = test system: Saccharomyces cerevisiae wild type strain BY4743; assay: AF1 yeast metabolite analysis by GC-MS and LC-MS after antifungal drug treatment; format: cell-based; settings: for # Compounds perturbed by treatment: 2X MIC, two hours; for Fold Change, phosphoenolpyruvate: metabolite phosphoenolpyruvate; for Fold Change, thymine: metabolite thymine; for Fold Change, urocanic acid: metabolite urocanic acid; for Fold Change, zeatin: metabolite zeatin
Arabidopsis thaliana [5] = assay: MOA1 phenotypic profiling of sprayed plants (eleven phenotypic characteristics); format: in vivo; settings: hierarchical cluster analysis of eleven phenotypic characteristics
[6] = 1 hr, p < 0.5, number of genes of 22,000

Compound: CNc1cnn(-c2cccc(C(F)(F)F)c2)c(=O)c1Cl [Norfluazon, Norflurazon]
- Regulated metabolites relative to control (in words) (Arabidopsis thaliana [1]): Only a few, if any, stress-related metabolites were observed

Compound: CP(=O)(O)CCC(N)C(=O)O (centres unmarked) [Glufosinate]
- Regulated metabolites relative to control (in words) (Arabidopsis thaliana [1]): Only a few, if any, stress-related metabolites were observed
- Characteristic symptoms of treated plants (in words) [2]: Chlorosis and leaf curling
- leafCurling (Dev.) [2]: 2
- leafTwisting (Dev.) [2]: 1
- leafWidth (Dev.) [2]: −2
- matureLeafAnthocyanins (Dev.) [2]: 0
- matureLeafChlorosis (Dev.) [2]: 3
- matureLeafNecrosis (Dev.) [2]: 0
- newLeafAnthocyanins (Dev.) [2]: 0
- newLeafChlorosis (Dev.) [2]: 3
- newLeafNecrosis (Dev.) [2]: 0
- pointedLeaves (Dev.) [2]: 1
- tMic (Dev.) [2]: 1
- Growth of M. grisea on various nitrogen sources, Tier 4 (Magnaporthe grisea): only able to utilize glutamine and glutamate as nitrogen sources
- Regulated Genes Following Herbicide Treatment: Down (Arabidopsis thaliana [3]; [6]): 54
- No. of Lethal Genes Altered (Arabidopsis thaliana [3]; 1 hr): 10

Compound: COC(=O)NS(=O)(=O)c1ccc(N)cc1 [Asulam]
- Gene expression perturbation (in words) (Arabidopsis thaliana [3]): fewest gene expression perturbations
- No. of Lethal Genes Altered (Arabidopsis thaliana [3]; 1 hr): 5

Compound: C[C@@H]1[C@H](O)[C@@H](C)/C=C/C=C/C=C/C=C/C=C/C=C/C=C/[C@H](O[C@@H]2O[C@H](C)[C@@H](O)[C@H](N)[C@@H]2O)C[C@@H]2O[C@](O)(C[C@@H](O)C[C@@H](O)[C@H](O)CC[C@@H](O)C[C@@H](O)CC(=O)O[C@H]1C)C[C@H](O)[C@H]2C(=O)O [Amphoteracin B]
- Number Of Pathways Having at Least One Enzyme and One Compound Perturbed (# Reactions) (yeast cells): 37
- Number of Reactions Having an Enzyme and at Least One Compound Perturbed (yeast cells): 54
- # Compounds perturbed by treatment ([4]; P < 0.05): 16
- # Compounds perturbed by treatment ([4]; P < 0.1): 21
- Fold Change, abscisic acid ([4]; platform LC): 0
- Fold Change, adenosine ([4]; platform LC): 0
- Fold Change, riboflavin ([4]; platform LC): 0
- Fold Change, selenoOLmethionine ([4]; platform nLC): 0.8515

Compound: CCSC(=O)N(CC(C)C)CC(C)C [Butylate]
- Regulated metabolites relative to control (in words) (Arabidopsis thaliana [1]): neither butylate nor chlorpropham treatment resulted in many changes in these commonly regulated metabolites
- Phenotype and phenotypic clustering (in words) (Arabidopsis thaliana [5]): neither showed a strong herbicidal phenotype

Compound: CC[C@@H]([C@H](C)O)n1ncn(-c2ccc(N3CCN(c4ccc(OC[C@@H]5CO[C@@](Cn6cncn6)(c6ccc(F)cc6F)C5)cc4)CC3)cc2)c1=O [Posaconazole]
- Fold Change, NacetylDglucosamine ([4]; metabolite NacetylDglucosamine, platform nLC, p-Value 1): 0
- Fold Change, NacetylLglucosamine ([4]; metabolite NacetylLglucosamine, platform pLC, p-Value 1): 0
- Fold Change, NacetylLglutamate ([4]; metabolite NacetylLglutamate, platform pLC, p-Value 1): 0
- Fold Change, NacetylLornithine ([4]; metabolite NacetylLornithine, platform nLC, p-Value 1): 0
- Fold Change, niacinamide ([4]; metabolite niacinamide, platform pLC, p-Value 1): 0
- Fold Change, nopaline ([4]; metabolite nopaline, platform pLC, p-Value 1): 0
- Fold Change, ornithine3 ([4]; metabolite ornithine3, platform GC, p-Value 0.965157424): 0.041
- Fold Change, orotic acid ([4]; metabolite orotic acid, platform nLC, p-Value 1): 0
- Fold Change, phenylpyruvic acid ([4]; metabolite phenylpyruvic acid, platform nLC, p-Value 1): 0
- Fold Change, phosphoenolpyruvate ([4]; platform LC, p-Value 1): 0
- Fold Change, phosphoenolpyruvate ([4]; platform nLC, p-Value 1): 0
- Fold Change, pinitol ([4]; metabolite pinitol, platform nLC, p-Value 1): 0
- Fold Change, progesterone ([4]; metabolite progesterone, platform pLC, p-Value 1): 0
- Fold Change, retinoic acid ([4]; metabolite retinoic acid, platform nLC, p-Value 1): 0
- Fold Change, riboflavin ([4]; metabolite riboflavin, platform pLC, p-Value 1): 0
- Fold Change, salicylic/HObenzoic ([4]; metabolite salicylic/HObenzoic, platform nLC, p-Value 1): 0
- Fold Change, shikimic acid ([4]; metabolite shikimic acid, platform nLC, p-Value 1): 0
- Fold Change, sinapinic acid ([4]; metabolite sinapinic acid, platform nLC, p-Value 1): 0
- Fold Change, sugar-phosphate ([4]; metabolite sugar-phosphate, platform pLC, p-Value 1): 0
- Fold Change, thiamine ([4]; metabolite thiamine, platform pLC, p-Value 1): 0
- Fold Change, thymine ([4]; platform nLC, p-Value 1): 0
- Fold Change, thymine ([4]; platform pLC, p-Value 1): 0
- Fold Change, tryptophan ([4]; metabolite tryptophan, platform pLC, p-Value 1): 0
- Fold Change, uric acid ([4]; metabolite uric acid, platform pLC, p-Value 1): 0
- Fold Change, urocanic acid ([4]; platform nLC, p-Value 1): 0
- Fold Change, urocanic acid ([4]; platform pLC, p-Value 1): 0
- Fold Change, xanthosine(diH2O) ([4]; metabolite xanthosine(diH2O), platform pLC, p-Value 1): 0
- Fold Change, xanthosineDiH2O ([4]; metabolite xanthosineDiH2O, platform nLC, p-Value 1): 0
- Fold Change, zeatin ([4]; platform nLC, p-Value 1): 0
- Fold Change, zeatin ([4]; platform pLC, p-Value 1): 0

Compound: CS(=O)(=O)c1cc(C(F)(F)F)ccc1C(=O)c1cnoc1C1CC1 [Isoxaflutole]
- Regulated metabolites relative to control (in words) (Arabidopsis thaliana [1]): both tyrosine and phenylalanine were up-regulated relative to the control; also recorded: Alpha-tocopherol was detected, but the levels were not significantly changed relative to the control at the early time points; also recorded: (tyrosine and phenylalanine), began to accumulate relative to the control after one hour
- Growth of M. grisea at a sub-inhibitory concentration (minimal, supplemented, minimal plus tyrosine media) (Magnaporthe grisea; concentration insufficient to inhibit growth): growth was inhibited in minimal plus tyrosine media, while growth in minimal media was unaffected
- Gene expression perturbation (in words) (Arabidopsis thaliana [3]): alterations in the expression of genes involved in the homogentisate biosynthetic pathway were not observed
- No. of Lethal Genes Altered (Arabidopsis thaliana [3]; 1 hr): 15

Compound: CC(C)OC(=O)Nc1cccc(Cl)c1 [Chloropropham]
- Regulated metabolites relative to control (in words) (Arabidopsis thaliana [1]): neither butylate nor chlorpropham treatment resulted in many changes in these commonly regulated metabolites
- Phenotype and phenotypic clustering (in words) (Arabidopsis thaliana [5]): neither showed a strong herbicidal phenotype

Compound: CC(C)C1(C)N=C(c2ncccc2C(=O)O)NC1=O (centres unmarked) [Imazapyr]
- Regulated metabolites relative to control (in words) (Arabidopsis thaliana [1]): Only a few, if any, stress-related metabolites were observed
- Characteristic symptoms of treated plants (in words) [2]: anthocyanin accumulation in the older leaves accompanied by chlorosis of the newly emerging leaves

Compound: COc1nc(C)nc(NC(=O)NS(=O)(=O)c2ccccc2Cl)n1 [Chlorsulfuron]
- Characteristic symptoms of treated plants (in words) [2]: anthocyanin accumulation in the older leaves accompanied by chlorosis of the newly emerging leaves
- No. of Lethal Genes Altered (Arabidopsis thaliana [3]; 1 hr): 8

Compound: O=C(O)c1ccccc1C(=O)Nc1cccc2ccccc12 [Naptalam]
- Regulated Genes Following Herbicide Treatment: Down (Arabidopsis thaliana [3]; [6]): 47
- Regulated Genes Following Herbicide Treatment: Up (Arabidopsis thaliana [3]; [6]): 50
- Gene expression perturbation (in words) (Arabidopsis thaliana [3]): fewest gene expression perturbations
- No. of Lethal Genes Altered (Arabidopsis thaliana [3]; 1 hr): 3

Compound: O=C(O)CNCP(=O)(O)O [Glyphosate]
- Regulated metabolites relative to control (in words) (Arabidopsis thaliana [1]): (tyrosine), decreased relative to the control after one hour
- Characteristic symptoms of treated plants (in words) [2]: anthocyanin accumulation in the older leaves accompanied by chlorosis of the newly emerging leaves
- leafCurling (Dev.) [2]: 0
- leafTwisting (Dev.) [2]: 0
- leafWidth (Dev.) [2]: 0
- matureLeafAnthocyanins (Dev.) [2]: 3
- matureLeafChlorosis (Dev.) [2]: 1
- matureLeafNecrosis (Dev.) [2]: 3
- newLeafAnthocyanins (Dev.) [2]: 1
- newLeafChlorosis (Dev.) [2]: 2
- newLeafNecrosis (Dev.) [2]: 0
- pointedLeaves (Dev.) [2]: 1
- tMic (Dev.) [2]: 2
- Growth of M. grisea on various nitrogen sources, Tier 4 (Magnaporthe grisea): inhibited growth of M. grisea when nitrate, nitrite, or glutamate was provided as the sole nitrogen source; also recorded: Little growth defect was observed when ammonium or glutamine was provided
- Growth results for Tiers 3 and 4 (Magnaporthe grisea; 250 μg/ml): nearly identical as compared to Unknown 4
- Growth inhibition of M. grisea and its remediation (Magnaporthe grisea; 1.0 mg/ml): remediated by inclusion of aromatic amino acids to the media

Compound: Nc1nc[nH]n1 [Amitrole]
- Characteristic symptoms of treated plants (in words) [2]: leaf bleaching and leaf enlargement
- Phenotype and phenotypic clustering (in words) (Arabidopsis thaliana [5]): exhibited chlorosis and not true bleaching

Compound: CC(=O)N1CCN(c2ccc(OCC3COC(Cn4ccnc4)(c4ccc(Cl)cc4Cl)O3)cc2)CC1 (centres unmarked) [Ketoconazole]
- # Compounds perturbed by treatment ([4]; P < 0.1): 15

From patent publication US20040019429A1, “Methods and systems for analyzing complex biological systems” (priority 2001, published 2004)
